# Values joined by “and” are separate entries in the source; they are usually repeats but may differ in a detail not shown here. Identical values can stand only once.
# Assays:
# vascular ring = assay: Vessel ring bioassay of SNO-Hb preparations, with or without glutathione; details: for effect of added glutathione on the dose-response: glutathione 100 μM in bioassay chambers
# Description: Arterial red blood cells contain two physiologically important forms of hemoglobin: Hb(FeII)O2 and Hb(FeIII) (Antonini et al. (1971)). […] Such findings raise the possibility of functional consequences, perhaps influenced by the redox state of heme and its occupation by ligand.
# Details of the vessel ring bioassay have been published (Stamler, J. S., et al., Proc. Natl. Acad. Sci. USA 89:444-448 (1992)). SNO-Hb(FeII)O2 preparations were synthesized with 10-fold excess S-nitrosocysteine (CYSNO) over Hb(FeII)O2 protein (2% borate, 0.5 mM EDTA, ˜15 min incubation), after which desalting was performed across Sephadex G-25 columns. CYSNO was synthesized in 0.5 N HCl, 0.5 mM EDTA and then neutralized (1:1) in 1 M phosphate buffer containing 0.5 mM EDTA. […] The latter was synthesized by treatment of Hb(FeII)O2 with excess ferricyanide, followed by desalting across G-25 columns. SNO-Hb concentrations were verified spectroscopically and the S-nitrosothiol content was determined by the method of Saville (Stamler, J. S., et al., Proc. Nat. Acad. Sci. USA 89:444-448 (1992)). The S-NO/tetramer stoichiometry for both SNO-Hb preparations was ˜2. Oxidation of the heme was undetectable by uv-spectrophotometric methods.
# Sprague-Dawley rat = assay: Mean arterial pressure after femoral vein bolus of cell-free Hb and SNO-Hbs; assay type: in vivo
# Description: Systemic administration of cell-free Hb results in hypertensive responses which have been attributed to NO scavenging by the heme (Vogel, W. M., et al., Am. J. Physiol. 251:H413-H420 (1986); Olsen, S. B., et al., Circulation 93:329-332 (1996)). To determine if SNO-Hb is free of this adverse affect, and to explore if in vitro mechanisms of NO release extend to the in vivo circumstance, we compared responses to Hb and SNO-Hb infused as a bolus into the femoral vein of anesthetized rats. […] Thus, the profiles of these compounds in vivo closely resemble those seen in vitro (FIG. 4A). […] These changes in mean blood pressure of ˜10% are on the order of those that differentiate normotension from hypertension in man, and in the therapeutic range of some antihypertensive regimens. […] The bioactivity of SNO-Hb in blood, where S—NO/heme stoichiometries approach 1:50,000, is a dramatic illustration of the resistence of this NO-related activity to Hb(Fe) inactivation.
# Administration of 2-200 nmol/kg Hb(FeII)O2 (as a bolus) into the femoral vein of a Sprague-Dawley rat is shown to increase mean arterial pressure in a dose-dependent manner. At 200 nmol/kg, mean arterial pressure increased by 25 mm Hg (20±3 mm Hg; n=4; P<0.05). Elevations in blood pressure reversed within 10-15 min. SNO-Hb(FeII)O2 infusions (over the same dose range) are shown to ameliorate Hb(FeII)O2-induced hypertension without causing overt changes in blood pressure. […] A fall in blood pressure was also seen with injection of erythrocytes containing SNO-Hb.
# Rats were anesthetized by intraperitoneal injection of pentobarbital and the femoral arteries and veins accessed by local cut down. The artery was then cannulated and the blood pressure monitored continuously using a Viggo Spectramed pressure transducer attached to a Gould recorder. An IBM PC (DATA Q Codas) was used for data acquisition.
# [1] = tested on: rabbit thoracic aorta rings; assay: Rabbit aortic ring bioassay: native and blocked Hb preparations, vessel tone and ACh (EDRF) relaxation; details: 1 μM
# Description: Hb-mediated inhibition of endothelium-dependent relaxations is commonly used as a marker of NO responses. Inasmuch as reactions with either metal or thiol centers of Hb should lead to attenuated NO/EDRF (endothelium-derived relaxing factor) responses, we attempted to elucidate the molecular basis of inhibition. Hb preparations in which β93 thiol groups had been blocked with N-ethylmaleimide (NEM) or the hemes blocked by cyanmet (FeIIICN)-derivitization were studied in an aortic ring bioassay, and their activities compared with that of native Hb. Both cyanmet-Hb and NEM-Hb caused increases in vessel tone and attenuated acetylcholine (EDRF)-mediated relaxations (FIG. 3B). […] To verify formation of an S-nitrosothiol in Hb, we established a bioassay in which 2 cm segments of thoracic aorta were interposed in Tygon tubing, through which 3 cc of Krebs solution containing Hb (4 μM) and ACh (2 μM) were circulated by roller pump (1.5 cc/min×5 min).
# The effects of native Hb on EDRF responses were compared with Hb preparations in which the thiol or heme centers had been blocked by alkylation or cyanmet derivitization, respectively. All preparations of Hb elicited contractions; however, those of native Hb (in which both SH and metal centers are free for interaction) were most pronounced. […] Relaxations were inhibited to lesser degrees by cyanmet Hb (CN-Hb)(in which hemes were blocked from reaction) and NEM-Hb (in which thiol groups were alkylated by N-ethylmaleimide). […] Direct measurement of SNO-Hb, formed from EDRF under similar conditions, is described in Example 8.
# Descending rabbit thoracic aorta were cut into 3 mm rings and mounted on stirrups attached to force transducers (model FT03, Grass Instruments, Quincy, Mass.) for measurement of isometric tone. The details of this bioassay system have been previously described (Stamler, J. S., et al., Proc. Natl. Acad. Sci. USA 89:444-448 (1992)). Cyanmet Hb was prepared from human HbA according to published protocols (Kilbourn, R. G. et al. Biochem. Biophy. Res. Comm. 199:155-162, (1994)). Alkylation of HbA with N-ethylmaleimide was followed by desalting across G-25 Sephadex to remove excess NEM. Removal of unmodified Hbcysβ93 was achieved by passage through Hg-containing affinity columns. The alkylation of free SH groups was verified using 5,5′-dithio-bis[2-nitrobenzoic acid].
# [2] = tested on: rabbit thoracic aorta rings; assay: Oxygen-dependent rabbit aortic ring bioassay of Hb, SNO-Hb, GSNO and SNO-RBCs
# rat red blood cells = assay: S-nitrosylation of intraerythrocytic Hb (loading of red blood cells); assay type: cell-based; details: for formation of intraerythrocytic SNO-Hb: oxygenated rat red blood cells
# Protocol: Given that Hb is largely contained within red blood cells, potential mechanisms by which S-nitrosylation of intracellular protein might occur were explored. […] Rapid oxidation of Hb was not observed under these conditions. […] Thus, erythrocyte access of RSNOs is thiol group specific.
# Incubation of rat erythrocytes with S-nitrosocysteine (equimolar to heme (5 mM); phosphate buffer pH 7.4, 25° C.) leads to rapid formation of intracellular SNO-Hb(FeII)O2. […] By 60 min, 3 of the 4 available SH groups of Hb are S-nitrosylated (note that rat Hb contains 4 reactive SH groups). […] Spectrum A is that of SNO-Hb isolated from erythrocytes following G-25 chromatography. Treatment of A with dithionite results in reduction of the S—NO moiety, liberating free NO which is autocaptured by deoxy Hb, forming Hb(FeII)NO (note that dithionite simultaneously deoxygenates Hb) (spectrum C). […] The spectrum of Hb(FeII)NO containing 4 NO's per tetramer is shown for comparison (inset, spectrum B).
# At shown intervals, red blood cells were pelleted rapidly by centrifugation, washed three times, lysed in deionized water at 4° C., and the cytosolic fraction subjected to rapid desalting across G-25 columns. Intracellular SNO-Hb was measured by the method of Saville (Gaston, B., et al., (1992); Stamler, J. S., et al., Proc. Natl. Acad. Sci. USA, 89:444-448 (1992)), and confirmed spectroscopically (inset of FIG. 3A) as described above.
# Sprague-Dawley rats = assay: Local cerebral blood flow by H2-sensitive microelectrodes; assay type: in vivo, rat; details: 1 μmol/kg infused over 3 minutes
# Protocol: Adult male Sprague-Dawley rats (290-350 g) were anesthetized with sodium pentobarbital (50 mg/kg IP), intubated and ventilated with a small animal respirator (Edco Scientific Inc., Chapel Hill, N.C.) at a rate and tidal volume to maintain normal values of PaCO2 (35-45 mm Hg; PaCO2=systemic arterial blood carbon dioxide tension). The femoral vein and artery were cannulated for infusion of drugs and for continuous monitoring of systemic blood pressure, respectively. Aliquots of arterial blood (200 μl) were drawn periodically to measure blood gas tensions and pH (Instrumentation Laboratory Co., model 1304 blood gas/pH analyzer). The blood was replaced intravenously with three volumes of normal saline. The inspired O2 concentration was varied using premixed gases balanced with nitrogen. The tissue PO2 was measured continuously with polarographic platinum microelectrodes (50 μm O.D. coated with hydrophobic gas permeable Nafion) implanted stereotaxically in both the right and left hippocampus (AP−3.4 mm, ML+2.2 mm), caudate putamen nucleus and substantia nigra (see coordinates below) (Young, W., Stroke, 11:552-564 (1980); Heiss, W. D. and Traupett, H., Stroke, 12:161-167 (1981); Dewhirst, M. W. et al., Cancer Res., 54:3333-3336 (1994); Kerger, H. et al., Am. J. Physiol., 268:H802-H810 (1995)). The PO2 electrodes were polarized to −0.65V against a distant Ag/AgCl reference located on the tail and the current flow was measured using a low-impedance nA-meter. Regional arterial PO2 was adjusted by changing the inspired O2 concentration and atmospheric pressure.
# Polarographic hydrogen (H2)-sensitive microelectrodes were implanted stereotaxically in the substantia nigra (AP −5.3 mm, ML −2.4 mm to the bregma, depth 3.2 mm), caudate putamen nucleus (CPN) (AP +0.8 mm, ML −2.5 mm, depth 5.2 mm) and parietal cortex, for measurement of regional blood flow (Young, W., Stroke, 11:552-564 (1980); Heiss, W. D. and Traupett, H., Stroke, 12:161-167 (1981)). The microelectrodes were made from platinum wire and insulated with epoxy, with the exception of the tip (1 mm) which was coated with Nafion. For placement, the electrodes were mounted on a micromanipulator and the rat's head was immobilized in a Kopf stereotaxic frame. H2-sensitive electrodes were polarized to +400 mV against a distant reference electrode on the tail, and the polarographic current was measured using a low-impedance nA meter during and after the inhalation of hydrogen gas (2.5%) for 1 min. Both the hydrogen clearance curves and voltage for oxygen measurements were made using PC WINDAQ (software, DI-200 AC, Dataq Instruments, Inc., Akron, Ohio). Cerebral blood flow was calculated using the initial slope method (Young, W., Stroke, 11:552-564 (1980); Heiss, W. D. and Traupett, H., Stroke, 12:161-167 (1981)). Regional blood flow responses were monitored for 30 min. prior to and 30 min. following drug administration; hemoglobins were given at time 0.
# The cerebrovascular effects of SNO-Hb were measured in adult male Sprague-Dawley rats using O2 and H2 (blood flow)-sensitive microelectrodes that were placed stereotaxically in several regions of the brain as for Example 11.
# Comparative effects of SNO-Hb (●) and Hb (▪) (1 μmol/kg infused over 3 minutes) on local blood flow in substantia nigra (SN), caudate putamen nucleus, and parietal cortex are shown for three different conditions. […] Baseline blood flow was decreased by ˜10% under 100% O2+3 ATA as compared to 100% O2. n=7 for all data points. Values of tissue/microvascular PO2 ranged from 19-37 mm Hg in 21% O2; from 68-138 mm Hg in 100% O2; and from 365-538 mm Hg in 100%+3 ATA (Duke University Medical Center Hyperbaric Chambers).
compound,measurement,setting,value
SNO-Hb(FeII)O2: S-nitroso-oxyhemoglobin,effect of added glutathione on the dose-response,vascular ring,potentiates the dose-response
same,activity in vascular ring bioassay,vascular ring; no glutathione,modest NO-like activity
same,blood pressure response,"Sprague-Dawley rat; bolus, femoral vein, anesthetized rat",did not exhibit hypertensive effects
NEM-Hb: Hb in which thiol groups were alkylated by N-ethylmaleimide,% ACh RELAXATION,[1],60.5 ± 3.9 (n = 7) %
same,% INCREASE IN TENSION,[1],29.4 ± 1.3 (n = 7) %
deoxyHb: deoxygenated hemoglobin [reference compound],effect on vessel tone in T-structure,[2]; <1% O2 (˜6 torr),powerful contractile agent
"CC(=O)OCC[N+](C)(C)C [ACh, acetylcholine]",% ACh RELAXATION,[1],98.3 ± 0.6 (n = 10) %
N[C@@H](CSN=O)C(=O)O [S-nitrosocysteine],SH groups of Hb S-nitrosylated,"rat red blood cells; of the 4 available SH groups of rat Hb, by 60 min, equimolar to heme (5 mM), pH 7.4, 25° C.",3
same,formation of intraerythrocytic SNO-Hb,rat red blood cells,very rapid formation of intracellular SNO-Hb(FeII)O2
Hb: native cell-free human hemoglobin purified from red cells [reference compound],% ACh RELAXATION,[1],31.9 ± 6.9 (n = 7) %
same,% INCREASE IN TENSION,[1],40.8 ± 2.3 (n = 7) %
same,local cerebral blood flow,Sprague-Dawley rats; 21% O2,decreased local blood flow
same,local cerebral blood flow,Sprague-Dawley rats; 100% O2,decrease in flow was preserved
same,local cerebral blood flow,Sprague-Dawley rats; 100% O2+3 ATA,tended to decrease cerebral flow to similar extents
same,effect on tone of rings contracted with phenylephrine under hypoxia,"[2]; 1 μM, 6-7 torr",progressive increases in vessel tone
"Hb(FeII)O2: oxyhemoglobin, cell-free [reference compound]",effect of added glutathione on the dose-response,vascular ring,did not significantly influence the response
same,increase in mean arterial pressure,"Sprague-Dawley rat; 200 nmol/kg bolus, femoral vein, anesthetized rat",20±3 mm Hg and 25 mm Hg
same,time for elevations in blood pressure to reverse,Sprague-Dawley rat; 2-200 nmol/kg bolus,10 to 15 min
"CN-Hb: cyanmet Hb, in which hemes were blocked from reaction",% ACh RELAXATION,[1],80.7 ± 1.0 † (n = 4) %
same,% INCREASE IN TENSION,[1],12.9 ± 3.0 (n = 6) %
"[N]=O [NO, nitric oxide, reference compound]",formation of intraerythrocytic SNO-Hb,rat red blood cells,primarily in metHb formation
N[C@@H](CCSN=O)C(=O)O [S-nitrosohomocysteine],formation of intraerythrocytic SNO-Hb,rat red blood cells,Intraerythrocytic SNO-Hb also formed
N[C@@H](CSN=O)C(=O)NCC(=O)O [S-nitrosocysteinylglycine],formation of intraerythrocytic SNO-Hb,rat red blood cells,Intraerythrocytic SNO-Hb also formed

# From patent publication US6916471B2, “Red blood cells loaded with S-nitrosothiol and uses therefor” (Duke University, priority 1995, dated 2005)
